What all share (experiment): MIC, serial dilution test on Iso-sensitest agar
Format in all cases: cell-based

For one experiment, the system named is Providencia sp. 12052. The conditions noted are these: 37° C., approx. 20 hours, approx. 10^4 CFU per inoculation point. As to the method: (§1) The minimum inhibitory concentrations (MIC) were determined by the serial dilution test on Iso-sensitest agar (Oxoid). For each test substance, a series of agar plates was prepared which contained concentrations of the active substance which decreased at a rate of in each case twice the dilution factor. The agar plates were inoculated using a multipoint inoculator (Denley). For inoculation, overnight cultures of the pathogens were used which had previously been diluted in such a manner that each inoculation point contained approximately 10^4 colony-forming units. The inoculated agar plates were incubated at 37° C., and the microbial growth was observed after approx. 20 hours. The MIC value (μg/ml) indicates the lowest active compound concentration at which no growth could be detected by the naked eye.

The subject of another experiment is E. coli 455/7. The note with it: Escherichia coli, 37° C., approx. 20 hours, approx. 10^4 CFU per inoculation point. The procedure: as §1
For experiment [1], the system named is Staphylococcus aureus 25768. The note with it: 37° C., approx. 20 hours, approx. 10^4 CFU per inoculation point. The procedure: as §1
The subject of experiment [2] is Staphylococcus aureus 1756. The conditions noted are these: 37° C., approx. 20 hours, approx. 10^4 CFU per inoculation point. The procedure:
as §1

In experiment [3] the test system is Staphylococcus aureus 133. The conditions noted are these: 37° C., approx. 20 hours, approx. 10^4 CFU per inoculation point. As to the method: as §1
A further experiment concerns Klebsiella pneumoniae 63. The note with it: 37° C., approx. 20 hours, approx. 10^4 CFU per inoculation point. The procedure:
as §1

Experiment [4] has as its system Acinetobacter caloaceticus 14068. The note with it: 37° C., approx. 20 hours, approx. 10^4 CFU per inoculation point. The procedure:
as §1

Experiment [5] relates to Enterococcus faecalis 27101. The conditions noted are these: 37° C., approx. 20 hours, approx. 10^4 CFU per inoculation point. The procedure: as §1
For experiment [6], the system named is Enterococcus faecalis 9790. The note with it: 37° C., approx. 20 hours, approx. 10^4 CFU per inoculation point. The procedure: as §1
The next experiment deals with Providencia sp. 12012. The note with it: 37° C., approx. 20 hours, approx. 10^4 CFU per inoculation point. The procedure:
as §1

The test system of another experiment is E. coli Neumann. The conditions noted are these: Escherichia coli, 37° C., approx. 20 hours, approx. 10^4 CFU per inoculation point. As to the method: as §1
For experiment [7], the system named is Staphylococcus aureus ICB 25701. The note with it: ICB25701, 37° C., approx. 20 hours, approx. 10^4 CFU per inoculation point. As to the method: as §1
The test system of a further experiment is Mirococcus luteus 9341. The conditions noted are these: 37° C., approx. 20 hours, approx. 10^4 CFU per inoculation point. As to the method: as §1
Experiment [8] has as its system Klebsiella pneumoniae 8085. The conditions noted are these: 37° C., approx. 20 hours, approx. 10^4 CFU per inoculation point. As to the method: as §1

Each structure is given as a SMILES string. Values after ≈ are worked out from the molar mass of the structure shown.

Our source for the MIC values is patent US5457104A, “Quinolone- and naphthyridonecarboxylic acid derivatives” (Bayer Aktiengesellschaft, priority 1993, dated 1995).

As to `NC1C=CCC2CN(c3ccc4c(=O)c(C(=O)O)cn(C5CC5)c4c3Cl)CC12` (stereo not shown) [Example 7], the minimal inhibitory concentration (MIC) came out at 1 µg/mL (≈ 2.5 µM) against Providencia sp. 12052; 0.5 µg/mL (≈ 1.25 µM) in the experiment on E. coli 455/7; 2 µg/mL (≈ 5 µM) in experiment [1]; 0.0039 µg/mL (≈ 0.00975 µM) in experiment [2]; 0.0039 µg/mL (≈ 0.00975 µM) in [3]; 0.015 µg/mL (≈ 0.0375 µM) with Klebsiella pneumoniae 63. For the same compound, the MIC in experiment [4] worked out at 0.015 µg/mL (≈ 0.0375 µM); in [5], 0.015 µg/mL (≈ 0.0375 µM); in experiment [6], 0.03 µg/mL (≈ 0.075 µM); with Providencia sp. 12012 it was 0.015 µg/mL (≈ 0.0375 µM); against E. coli Neumann it was 0.0078 µg/mL (≈ 0.0195 µM); in experiment [7], 0.06 µg/mL (≈ 0.15 µM). For the same compound, the MIC against Mirococcus luteus 9341 came to 0.03 µg/mL (≈ 0.075 µM); in experiment [8], 0.015 µg/mL (≈ 0.0375 µM).
As for `CC1C=CC(N)C2CN(c3ccc4c(=O)c(C(=O)O)cn(C5CC5)c4c3Cl)CC12` (stereo not shown) [Example 8], the MIC in the experiment on Providencia sp. 12052 worked out at 1 µg/mL (≈ 2.42 µM); in the experiment with E. coli 455/7, 0.5 µg/mL (≈ 1.21 µM); in experiment [1], 2 µg/mL (≈ 4.83 µM); in experiment [2], 0.0078 µg/mL (≈ 0.0188 µM); in [3], 0.0078 µg/mL (≈ 0.0188 µM); in the experiment on Klebsiella pneumoniae 63, 0.03 µg/mL (≈ 0.0725 µM). For the same compound, the MIC stood at 0.03 µg/mL (≈ 0.0725 µM) in [4]; 0.06 µg/mL (≈ 0.145 µM) in experiment [5]; 0.06 µg/mL (≈ 0.145 µM) in experiment [6]; 0.06 µg/mL (≈ 0.145 µM) with Providencia sp. 12012; 0.015 µg/mL (≈ 0.0362 µM) against E. coli Neumann; 0.06 µg/mL (≈ 0.145 µM) in experiment [7]. Also, the MIC against Mirococcus luteus 9341 is 0.06 µg/mL (≈ 0.145 µM); in experiment [8], 0.03 µg/mL (≈ 0.0725 µM).
As for `NC1C=CCC2CN(c3ccc4c(=O)c(C(=O)O)cn(C5CC5)c4c3F)CC12` (stereo not shown) [Example 20], the minimum inhibitory concentration (MIC) in the experiment on Providencia sp. 12052 stood at 1 µg/mL (≈ 2.61 µM); against E. coli 455/7, 1 µg/mL (≈ 2.61 µM); in experiment [1], 4 µg/mL (≈ 10.4 µM); in [2], 0.015 µg/mL (≈ 0.0391 µM); in experiment [3] it was 0.03 µg/mL (≈ 0.0782 µM); with Klebsiella pneumoniae 63, 0.03 µg/mL (≈ 0.0782 µM). For the same compound, the minimal inhibitory concentration (MIC) in experiment [4] worked out at 0.06 µg/mL (≈ 0.156 µM); in [5], 0.06 µg/mL (≈ 0.156 µM); in experiment [6], 0.06 µg/mL (≈ 0.156 µM); against Providencia sp. 12012, 0.06 µg/mL (≈ 0.156 µM); against E. coli Neumann it was 0.03 µg/mL (≈ 0.0782 µM); in experiment [7], 0.25 µg/mL (≈ 0.652 µM). For the same compound, the minimal inhibitory concentration (MIC) against Mirococcus luteus 9341 was 0.06 µg/mL (≈ 0.156 µM); in experiment [8], 0.03 µg/mL (≈ 0.0782 µM).
Take `CC1C=CC(N)C2CN(c3ccc4c(=O)c(C(=O)O)cn(C5CC5)c4c3F)CC12` (stereo not shown) [Example 21]: the minimal inhibitory concentration (MIC) was 1 µg/mL (≈ 2.52 µM) in the experiment with Providencia sp. 12052; 0.5 µg/mL (≈ 1.26 µM) against E. coli 455/7; 2 µg/mL (≈ 5.03 µM) in experiment [1]; 0.015 µg/mL (≈ 0.0377 µM) in [2]; 0.015 µg/mL (≈ 0.0377 µM) in experiment [3]; 0.3 µg/mL (≈ 0.755 µM) in the experiment on Klebsiella pneumoniae 63. Besides, the MIC was 0.03 µg/mL (≈ 0.0755 µM) in experiment [4]; 0.06 µg/mL (≈ 0.151 µM) in [5]; 0.06 µg/mL (≈ 0.151 µM) in [6]; 0.06 µg/mL (≈ 0.151 µM) in the experiment on Providencia sp. 12012; 0.015 µg/mL (≈ 0.0377 µM) against E. coli Neumann; 0.25 µg/mL (≈ 0.629 µM) in [7]. Also, the figures for the MIC (with Mirococcus luteus 9341; in [8]) were 0.125 µg/mL (≈ 0.315 µM) and 0.3 µg/mL (≈ 0.755 µM), respectively.
As for `NC1CCN(c2ccc3c(=O)c(C(=O)O)cn(C4CC4)c3c2F)C1` (stereo not shown) [Reference, 7-(3-aminopyrrolidin-1-yl)-1-cyclopropyl-8-fluoro-1,4-dihydro-4-oxo-3-quinolinecarboxylic acid, reference compound], the MIC against Providencia sp. 12052 came to 2 µg/mL (≈ 6.04 µM); against E. coli 455/7 it was 1 µg/mL (≈ 3.02 µM); in [1], 16 µg/mL (≈ 48.3 µM); in experiment [2], 0.125 µg/mL (≈ 0.377 µM); in experiment [3] it was 0.125 µg/mL (≈ 0.377 µM); in the experiment on Klebsiella pneumoniae 63, 0.062 µg/mL (≈ 0.187 µM). For the same compound, the minimum inhibitory concentration (MIC) in experiment [4] amounted to 0.25 µg/mL (≈ 0.754 µM); in [5], 0.25 µg/mL (≈ 0.754 µM); in [6] it was 0.25 µg/mL (≈ 0.754 µM); against Providencia sp. 12012, 0.06 µg/mL (≈ 0.181 µM); against E. coli Neumann, 0.031 µg/mL (≈ 0.0936 µM); in experiment [7], 4 µg/mL (≈ 12.1 µM). In addition, the MIC in the experiment on Mirococcus luteus 9341 is 0.5 µg/mL (≈ 1.51 µM); in experiment [8], 0.062 µg/mL (≈ 0.187 µM).

The term MIC denotes the smallest concentration in the dilution series that meets the test's criterion for growth inhibition.
